Assays:
[1] = test system: P388; test: Median survival time of treated to that of control after administration on every 4th day at 25 mg/kg intraperitoneally in BDF1 mice; format: functional, Mus musculus; conditions: route intraperitoneal
[2] = test system: P388; test: Average weight change after administration on every 4th day at 6.25 mg/kg intraperitoneally in mice; format: functional, Mus musculus; conditions: route intraperitoneal
[3] = test system: L1210; test: Median survival time of treated to that of control after administration at 3.2 mg/kg intraperitoneally in BDF1 mice on day 1 in experiment 1; format: functional, Mus musculus; conditions: route intraperitoneal
[4] = test system: P388; test: Median survival time of treated to that of control after administration on every 4th day at 50 mg/kg intraperitoneally in BDF1 mice; format: functional, Mus musculus; conditions: route intraperitoneal
[5] = test system: L1210; test: Tested for survivors on day 5 after administration at 3.2 mg/kg intraperitoneally in mice on day 1 in experiment 1; format: functional, Mus musculus; conditions: route intraperitoneal
[6] = test system: L1210; test: Average weight change after administration at 0.4 mg/kg intraperitoneally in mice on day 1 in experiment 1; format: functional, Mus musculus; conditions: route intraperitoneal
[7] = test system: Bacillus subtilis; test: Tested for antibacterial effect against Bacillus subtilis-8 at dose 6.25 ug/mL; format: functional
[8] = test system: P388; test: Average weight change after administration on every 4th day at 50 mg/kg intraperitoneally in mice; format: functional, Mus musculus; conditions: route intraperitoneal
[9] = test system: L1210; test: Median survival time of treated to that of control after administration at 0.8 mg/kg intraperitoneally in BDF1 mice on day 1 in experiment 1; format: functional, Mus musculus; conditions: route intraperitoneal
[10] = test system: P388; test: Median survival time of treated to that of control after administration on every 4th day at 6.25 mg/kg intraperitoneally in BDF1 mice; format: functional, Mus musculus; conditions: route intraperitoneal
[11] = test system: P388; test: Average weight change after administration at 3.13 mg/kg intraperitoneally in mice; format: functional, Mus musculus; conditions: route intraperitoneal
[12] = test system: Bacillus subtilis; test: Tested for antibacterial effect against Bacillus subtilis-8 at dose 12.5 ug/mL; format: functional
[13] = test system: P388; test: Tested for survivors on day 5 after administration on every 4th day at 6.25 mg/kg intraperitoneally in mice; format: functional, Mus musculus; conditions: route intraperitoneal
[14] = test system: L1210; test: Tested for survivors on day 5 after administration at 6.4 mg/kg intraperitoneally in mice on day 1 in experiment 1; format: functional, Mus musculus; conditions: route intraperitoneal
[15] = test system: P388; test: Median survival time of treated to that of control after administration on every 4th day at 12.5 mg/kg intraperitoneally in BDF1 mice; format: functional, Mus musculus; conditions: route intraperitoneal
[16] = test system: L1210; test: Average weight change after administration at 12.8 mg/kg intraperitoneally in mice on day 1 in experiment 1; format: functional, Mus musculus; conditions: route intraperitoneal
[17] = test system: L1210; test: Median survival time of treated to that of control after administration at 12.8 mg/kg intraperitoneally in BDF1 mice on day 1 in experiment 1; format: functional, Mus musculus; conditions: route intraperitoneal
[18] = test system: P388; test: Average weight change after administration on every 4th day at 12.5 mg/kg intraperitoneally in mice; format: functional, Mus musculus; conditions: route intraperitoneal
[19] = test system: L1210; test: Average weight change after administration at 3.2 mg/kg intraperitoneally in mice on day 1 in experiment 1; format: functional, Mus musculus; conditions: route intraperitoneal
[20] = test system: L1210; test: Average weight change after administration at 0.8 mg/kg intraperitoneally in mice on day 1 in experiment 1; format: functional, Mus musculus; conditions: route intraperitoneal
[21] = test system: L1210; test: Average weight change after administration at 6.4 mg/kg intraperitoneally in mice on day 1 in experiment 1; format: functional, Mus musculus; conditions: route intraperitoneal
[22] = test system: P388; test: Tested for survivors on day 5 after administration on every 4th day at 3.13 mg/kg intraperitoneally in mice; format: functional, Mus musculus; conditions: route intraperitoneal
[23] = test system: L1210; test: Tested for survivors on day 5 after administration at 0.4 mg/kg intraperitoneally in mice on day 1 in experiment 1; format: functional, Mus musculus; conditions: route intraperitoneal
[24] = test system: L1210; test: Tested for survivors on day 5 after administration at 12.8 mg/kg intraperitoneally in mice on day 1 in experiment 1; format: functional, Mus musculus; conditions: route intraperitoneal
[25] = test system: Bacillus subtilis; test: Tested for antibacterial effect against Bacillus subtilis-8 at dose 25 ug/mL; format: functional
[26] = test system: P388; test: Tested for survivors on day 5 after administration on every 4th day at 25 mg/kg intraperitoneally in mice; format: functional, Mus musculus; conditions: route intraperitoneal
[27] = test system: L1210; test: Median survival time of treated to that of control after administration at 1.6 mg/kg intraperitoneally in BDF1 mice on day 1 in experiment 1; format: functional, Mus musculus; conditions: route intraperitoneal
[28] = test system: P388; test: Average weight change after administration on every 4th day at 25 mg/kg intraperitoneally in mice; format: functional, Mus musculus; conditions: route intraperitoneal
[29] = test system: L1210; test: Median survival time of treated to that of control after administration at 6.4 mg/kg intraperitoneally in BDF1 mice on day 1 in experiment 1; format: functional, Mus musculus; conditions: route intraperitoneal
[30] = test system: Bacillus subtilis; test: Tested for antibacterial effect against Bacillus subtilis-8 at dose 50 ug/mL; format: functional
[31] = test system: L1210; test: Tested for survivors on day 5 after administration at 0.8 mg/kg intraperitoneally in mice on day 1 in experiment 1; format: functional, Mus musculus; conditions: route intraperitoneal
[32] = test system: L1210; test: Average weight change after administration at 1.6 mg/kg intraperitoneally in mice on day 1 in experiment 1; format: functional, Mus musculus; conditions: route intraperitoneal
[33] = test system: L1210; test: Tested for survivors on day 5 after administration at 1.6 mg/kg intraperitoneally in mice on day 1 in experiment 1; format: functional, Mus musculus; conditions: route intraperitoneal
[34] = test system: P388; test: Tested for survivors on day 5 after administration on every 4th day at 50 mg/kg intraperitoneally in mice; format: functional, Mus musculus; conditions: route intraperitoneal
[35] = test system: P388; test: Median survival time of treated to that of control after administration at 3.13 mg/kg intraperitoneally in BDF1 mice; format: functional, Mus musculus; conditions: route intraperitoneal
[36] = test system: P388; test: Tested for survivors on day 5 after administration at 12.5 mg/kg intraperitoneally in mice on day 1 in experiment 2; format: functional, Mus musculus; conditions: route intraperitoneal
[37] = test system: L1210; test: Median survival time of treated to that of control after administration at 0.4 mg/kg intraperitoneally in BDF1 mice on day 1 in experiment 1; format: functional, Mus musculus; conditions: route intraperitoneal
[38] = test system: Bacillus subtilis; test: Tested for antibiotic activity against Bacillus subtilis-ATTCC 6633 at dose 12.5 ug/mL via plate assay; format: functional

## COc1cccc2c1C(=O)c1c(O)c3c(c(O)c1C2=O)C[C@@](O)(C(C)=O)C[C@@H]3O[C@H]1C[C@H](O)[C@H](O)CO1
[1]
  T/C: 110%
[2]
  Average weight change: -1.2
[3]
  T/C: 100%
[4]
  T/C: 110%
[5]
  Survivors: 6
[6]
  Average weight change: 1.5
[7]
  Inhibition zone: 10 mm
[8]
  Average weight change: 0.2
[9]
  T/C: 100%
[10]
  T/C: 100%
[11]
  Average weight change: -2
[12]
  Inhibition zone: 12.5 mm
[13]
  Survivors: 6
[14]
  Survivors: 6
[15]
  T/C: 112%
[16]
  Average weight change: 2.3
[17]
  T/C: 107%
[18]
  Average weight change: -1.3
[19]
  Average weight change: 0.2
[20]
  Average weight change: 1.8
[21]
  Average weight change: 2.4
[22]
  Survivors: 6
[23]
  Survivors: 6
[24]
  Survivors: 6
[25]
  Inhibition zone: 15.8 mm
[26]
  Survivors: 6
[27]
  T/C: 86%
[28]
  Average weight change: -0.5
[29]
  T/C: 93%
[30]
  Inhibition zone: 18.8 mm
[31]
  Survivors: 6
[32]
  Average weight change: 2.6
[33]
  Survivors: 6
[34]
  Survivors: 6
[35]
  T/C: 100%
[36]
  Survivors: 6
[37]
  T/C: 100%

## CC(=O)[C@]1(O)Cc2c(O)c3c(c(O)c2C(O)C1)C(=O)c1c(O)cccc1C3=O (stereo partly drawn) [CARMINOMYCINONE]
[38]
  Inhibition zone: 20.2 mm
